Legend:
[1] = molecular target: Carbonic anhydrase 2 (Homo sapiens, UniProt P00918)
Description: Inhibition of human CA-II-catalysed CO2 hydration activity incubated for 15 min by Phenol red dye based assay

[2] = molecular target: Carbonic anhydrase 1 (Homo sapiens, UniProt P00915)
Description: Inhibition of human CA-I-catalysed CO2 hydration activity incubated for 15 min by Phenol red dye based assay

[3] = molecular target: Carbonic anhydrase 9 (Homo sapiens, UniProt Q16790)
Description: Inhibition of human CA-IX-catalysed CO2 hydration activity incubated for 15 min by Phenol red dye based assay

[4] = molecular target: T1, Carbonic anhydrase 4 (Homo sapiens, UniProt P22748)
Description: Inhibition of human CA-IV-catalysed CO2 hydration activity incubated for 15 min by Phenol red dye based assay

[5] = molecular target: Carbonic anhydrase 12 (Homo sapiens, UniProt O43570)
Description: Inhibition of human CA-XII-catalysed CO2 hydration activity incubated for 15 min by Phenol red dye based assay

[6] = molecular target: T1, Carbonic anhydrase 4; remark: listed apart in the source
Description: Inhibition of human CA-IV

Chain of Carbonic anhydrase 1 (P00915 whole entry): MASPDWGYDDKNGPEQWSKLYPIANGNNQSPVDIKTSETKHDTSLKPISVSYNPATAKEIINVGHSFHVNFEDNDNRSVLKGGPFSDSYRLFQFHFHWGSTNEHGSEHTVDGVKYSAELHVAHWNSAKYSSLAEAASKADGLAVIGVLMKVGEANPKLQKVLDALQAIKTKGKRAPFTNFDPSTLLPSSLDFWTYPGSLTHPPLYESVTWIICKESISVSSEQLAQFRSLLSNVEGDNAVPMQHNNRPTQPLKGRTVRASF
Chain of Carbonic anhydrase 12 (O43570 whole entry): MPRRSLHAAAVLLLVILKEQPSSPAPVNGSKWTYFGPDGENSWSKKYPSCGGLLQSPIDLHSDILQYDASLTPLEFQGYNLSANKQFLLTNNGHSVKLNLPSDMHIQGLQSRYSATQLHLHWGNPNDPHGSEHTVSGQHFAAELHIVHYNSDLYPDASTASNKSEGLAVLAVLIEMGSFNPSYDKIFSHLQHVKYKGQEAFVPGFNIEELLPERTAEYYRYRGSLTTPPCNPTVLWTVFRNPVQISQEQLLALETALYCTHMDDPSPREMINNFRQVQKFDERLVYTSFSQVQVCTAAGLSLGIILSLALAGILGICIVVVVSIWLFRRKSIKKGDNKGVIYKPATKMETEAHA
T1 sequence (P22748 whole entry): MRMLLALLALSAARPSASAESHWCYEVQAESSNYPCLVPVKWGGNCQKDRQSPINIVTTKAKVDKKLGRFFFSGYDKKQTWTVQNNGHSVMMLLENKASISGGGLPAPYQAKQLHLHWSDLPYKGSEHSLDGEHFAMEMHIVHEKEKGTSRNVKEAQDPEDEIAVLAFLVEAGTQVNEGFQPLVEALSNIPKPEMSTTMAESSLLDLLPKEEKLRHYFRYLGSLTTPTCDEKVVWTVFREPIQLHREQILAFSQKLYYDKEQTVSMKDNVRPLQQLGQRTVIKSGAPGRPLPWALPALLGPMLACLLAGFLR

Q: Which Ki [1] does the source give for `CC(F)(F)CN(CCCCN1C(=O)c2ccccc2C1=O)S(=O)(=O)c1ccc([N+](=O)[O-])cc1` here?
A: > 100 µM

Q: And the Ki [2]?
A: > 100 µM

Q: What about the Ki [3] of the same compound?
A: > 100 µM

Q: And the Ki [4]?
A: > 100000 nM

Q: With `CC(F)(F)CN(CCCN1C(=O)c2ccccc2C1=O)S(=O)(=O)c1ccc([N+](=O)[O-])cc1` as the compound, how does the Ki [2] read?
A: > 100 µM

Q: And the Ki [3]?
A: > 100 µM

Q: And the Ki [4]?
A: > 100000 nM

Q: Which results are given for `CN(CC(F)CN)S(=O)(=O)c1ccc([N+](=O)[O-])cc1` (centres undefined)?
A: Ki [5]: 3.65 µM; Ki [1]: 0.79 µM; Ki [2]: > 100 µM; Ki [3]: 89 µM; Ki [4]: 20100 nM

Q: Which Ki [5] does the source give for `CC(F)CNCCCN1C(=O)c2ccccc2C1=O` (centres undefined) here?
A: > 100 µM

Q: What about the Ki [1] of the same compound?
A: 4.26 µM

Q: What about the Ki [2] of the same compound?
A: > 100 µM

Q: What about the Ki [3] of the same compound?
A: > 100 µM

Q: And the Ki [4]?
A: 130 nM

Q: For `CC(=O)N1N=C(c2ccc(S(N)(=O)=O)cc2)CC1c1c(Cl)cccc1Cl` (centres undefined), which Ki [4] is on record?
A: 17.7 nM

Q: What does the source list for `CC(F)CNCCCCN` (centres undefined)?
A: Ki [5]: > 100 µM; Ki [1]: 63.7 µM; Ki [2]: > 100 µM; Ki [3]: 0.38 µM; Ki [4]: 28 nM

Q: `CN(CC(F)CN1C(=O)c2ccccc2C1=O)S(=O)(=O)c1ccc([N+](=O)[O-])cc1` (centres undefined) was tested. Which Ki [5] did it give?
A: > 100 µM

Q: What about the Ki [1] of the same compound?
A: > 100 µM

Q: What about the Ki [2] of the same compound?
A: > 100 µM

Q: What about the Ki [3] of the same compound?
A: > 100 µM

Q: What about the Ki [4] of the same compound?
A: > 100000 nM

Q: How did the Ki [5] turn out when `CC(F)(F)CNCCCN` was run?
A: > 100 µM

Q: What about the Ki [2] of the same compound?
A: > 100 µM

Q: With `CC(F)CN(CCCN)S(=O)(=O)c1ccc([N+](=O)[O-])cc1` (centres undefined) as the compound, how does the Ki [5] read?
A: 5.2 µM

Q: What about the Ki [1] of the same compound?
A: 0.72 µM

Q: And the Ki [2]?
A: > 100 µM

Q: And the Ki [3]?
A: > 100 µM

Q: And the Ki [4]?
A: 51200 nM

Q: `CC(F)CNCCCCN1C(=O)c2ccccc2C1=O` (centres undefined) was tested. Which Ki [5] did it give?
A: 0.006 µM

Q: What about the Ki [1] of the same compound?
A: 0.012 µM

Q: And the Ki [2]?
A: 0.25 µM

Q: And the Ki [3]?
A: 0.026 µM

Q: And the Ki [4]?
A: 74 nM

Q: `CCCNCCCN` was tested. Which Ki [5] did it give?
A: 52.7 µM

Q: What about the Ki [1] of the same compound?
A: > 100 µM

Q: And the Ki [2]?
A: > 100 µM

Q: What about the Ki [3] of the same compound?
A: 2.95 µM

Q: What about the Ki [4] of the same compound?
A: 95 nM

Q: What does the source list for `CN(CC(F)CCl)S(=O)(=O)c1ccc([N+](=O)[O-])cc1` (centres undefined)?
A: Ki [5]: > 100 µM; Ki [1]: > 100 µM; Ki [2]: > 100 µM; Ki [3]: > 100 µM; Ki [4]: > 100000 nM

Q: For `CC(F)(F)CNCCCCN1C(=O)c2ccccc2C1=O`, which Ki [2] is on record?
A: > 100 µM

Q: What about the Ki [4] of the same compound?
A: > 100000 nM

Q: With `O=C1c2ccccc2C(=O)N1CC(F)CNS(=O)(=O)c1ccc([N+](=O)[O-])cc1` (centres undefined) as the compound, how does the Ki [5] read?
A: > 100 µM

Q: What about the Ki [1] of the same compound?
A: 0.076 µM

Q: And the Ki [2]?
A: > 100 µM

Q: What about the Ki [3] of the same compound?
A: > 100 µM

Q: And the Ki [4]?
A: > 100000 nM

Q: Which IC50 [6] does the source give for `CC(F)CNS(=O)(=O)c1ccc([N+](=O)[O-])cc1` (centres undefined) here?
A: 71 nM

Q: And the Ki [5]?
A: 4.2 µM

Q: And the Ki [1]?
A: 2.4 µM

Q: And the Ki [2]?
A: 4.5 µM

Q: What about the Ki [3] of the same compound?
A: 2.2 µM

Q: And the Ki [4]?
A: 71 nM

Q: With `CC(F)CNCCCN` (centres undefined) as the compound, how does the Ki [5] read?
A: > 100 µM

Q: And the Ki [1]?
A: 36.9 µM

Q: And the Ki [2]?
A: > 100 µM

Q: What about the Ki [3] of the same compound?
A: 1.44 µM

Q: And the Ki [4]?
A: 34 nM

Q: Which results are given for `O=[N+]([O-])c1ccc(S(=O)(=O)NCC(F)CCl)cc1` (centres undefined)?
A: Ki [5]: 0.68 µM; Ki [1]: 0.026 µM; Ki [2]: 3.02 µM; Ki [3]: 20 µM; Ki [4]: > 100000 nM

Q: What does the source list for `CCCNCCCCN`?
A: Ki [5]: 28.6 µM; Ki [1]: > 100 µM; Ki [2]: > 100 µM; Ki [3]: 3.08 µM; Ki [4]: 93 nM

Q: `CC(F)CN(CCCCN1C(=O)c2ccccc2C1=O)S(=O)(=O)c1ccc([N+](=O)[O-])cc1` (centres undefined) was tested. Which Ki [5] did it give?
A: 0.64 µM

Q: And the Ki [1]?
A: 34 µM

Q: And the Ki [2]?
A: > 100 µM

Q: What about the Ki [3] of the same compound?
A: > 100 µM

Q: What about the Ki [4] of the same compound?
A: > 100000 nM

Q: What does the source list for `CC(F)(F)CNCCCN1C(=O)c2ccccc2C1=O`?
A: Ki [5]: > 100 µM; Ki [2]: > 100 µM; Ki [3]: > 100 µM

Q: For `CC(F)CN(CCCN1C(=O)c2ccccc2C1=O)S(=O)(=O)c1ccc([N+](=O)[O-])cc1` (centres undefined), which Ki [5] is on record?
A: 7 µM

Q: What about the Ki [1] of the same compound?
A: 78.4 µM

Q: And the Ki [2]?
A: > 100 µM

Q: And the Ki [3]?
A: > 100 µM

Q: What about the Ki [4] of the same compound?
A: > 100000 nM

Q: For `CC(F)(F)CNCCCCN`, which Ki [5] is on record?
A: > 100 µM

Q: What about the Ki [1] of the same compound?
A: > 100 µM

Q: And the Ki [2]?
A: > 100 µM

Reference: ChEMBL document CHEMBL6083264, “Superacid-Synthesized Fluorinated Diamines Act as Selective hCA IV Inhibitors” (J Med Chem, 2024)
